In ChEMBL document CHEMBL3758163, “Extended structure-activity study of thienopyrimidine-based EGFR inhibitors with evaluation of drug-like properties” (Eur J Med Chem, 2016):

Experiments:
[1] = target: Macrophage colony-stimulating factor 1 receptor (Homo sapiens) (UniProt P07333); assay: Inhibition of CSF1R (unknown origin) at 500 nM
[2] = target: Protein kinase C beta type (Homo sapiens) (UniProt P05771); assay: Inhibition of PRKCB1 (unknown origin) at 500 nM
[3] = target: Aurora kinase B (Homo sapiens) (UniProt Q96GD4); assay: Inhibition of AURKB (unknown origin) at 500 nM
[4] = target: Platelet-derived growth factor receptor beta (Homo sapiens) (UniProt P09619); assay: Inhibition of PDGFRB (unknown origin) at 500 nM
[5] = target: Tyrosine-protein kinase JAK2 (Homo sapiens) (UniProt O60674); assay: Inhibition of JAK2 (unknown origin) at 500 nM
[6] = target: T1, Aurora kinase A (Homo sapiens) (UniProt O14965); assay: Inhibition of AURKA (unknown origin) at 500 nM
T1 sequence (whole entry): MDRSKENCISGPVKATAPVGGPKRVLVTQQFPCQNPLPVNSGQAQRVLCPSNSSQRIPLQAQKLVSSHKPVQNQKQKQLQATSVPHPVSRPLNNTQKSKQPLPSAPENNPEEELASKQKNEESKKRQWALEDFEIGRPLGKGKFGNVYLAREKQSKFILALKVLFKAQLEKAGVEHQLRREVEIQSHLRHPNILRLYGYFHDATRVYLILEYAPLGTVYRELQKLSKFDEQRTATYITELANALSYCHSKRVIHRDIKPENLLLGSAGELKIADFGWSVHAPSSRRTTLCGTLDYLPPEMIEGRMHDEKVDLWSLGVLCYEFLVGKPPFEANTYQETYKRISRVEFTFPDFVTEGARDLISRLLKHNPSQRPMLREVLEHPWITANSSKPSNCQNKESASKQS

[7] = target: Angiopoietin-1 receptor (Homo sapiens) (UniProt Q02763); assay: Inhibition of TEK (unknown origin) at 500 nM
[8] = target: Protein kinase C theta type (Homo sapiens) (UniProt Q04759); assay: Inhibition of PRKCQ (unknown origin) at 500 nM
Sequence of Protein kinase C theta type (Homo sapiens) (Q04759 whole entry, looked up): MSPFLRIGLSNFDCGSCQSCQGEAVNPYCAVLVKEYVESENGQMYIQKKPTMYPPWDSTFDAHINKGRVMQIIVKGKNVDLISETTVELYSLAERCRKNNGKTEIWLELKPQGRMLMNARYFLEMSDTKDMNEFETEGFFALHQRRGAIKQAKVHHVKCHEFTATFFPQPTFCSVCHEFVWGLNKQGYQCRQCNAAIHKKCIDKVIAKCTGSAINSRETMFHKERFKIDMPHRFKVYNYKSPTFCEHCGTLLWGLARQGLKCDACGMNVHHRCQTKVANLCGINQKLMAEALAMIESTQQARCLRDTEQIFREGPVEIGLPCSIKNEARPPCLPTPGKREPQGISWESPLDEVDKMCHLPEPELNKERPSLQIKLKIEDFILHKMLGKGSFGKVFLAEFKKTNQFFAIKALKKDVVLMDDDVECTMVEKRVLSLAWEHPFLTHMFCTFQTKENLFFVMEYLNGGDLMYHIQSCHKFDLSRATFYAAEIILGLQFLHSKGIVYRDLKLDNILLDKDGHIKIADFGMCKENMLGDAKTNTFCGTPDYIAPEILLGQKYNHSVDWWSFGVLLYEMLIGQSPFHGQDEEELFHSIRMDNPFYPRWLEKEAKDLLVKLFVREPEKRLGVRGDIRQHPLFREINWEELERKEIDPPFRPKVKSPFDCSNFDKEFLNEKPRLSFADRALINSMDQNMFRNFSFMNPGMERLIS

[9] = target: MAP kinase-activated protein kinase 2 (Homo sapiens) (UniProt P49137); assay: Inhibition of MAPKAPK2 (unknown origin) at 500 nM
Sequence of MAP kinase-activated protein kinase 2 (Homo sapiens) (P49137 whole entry, looked up): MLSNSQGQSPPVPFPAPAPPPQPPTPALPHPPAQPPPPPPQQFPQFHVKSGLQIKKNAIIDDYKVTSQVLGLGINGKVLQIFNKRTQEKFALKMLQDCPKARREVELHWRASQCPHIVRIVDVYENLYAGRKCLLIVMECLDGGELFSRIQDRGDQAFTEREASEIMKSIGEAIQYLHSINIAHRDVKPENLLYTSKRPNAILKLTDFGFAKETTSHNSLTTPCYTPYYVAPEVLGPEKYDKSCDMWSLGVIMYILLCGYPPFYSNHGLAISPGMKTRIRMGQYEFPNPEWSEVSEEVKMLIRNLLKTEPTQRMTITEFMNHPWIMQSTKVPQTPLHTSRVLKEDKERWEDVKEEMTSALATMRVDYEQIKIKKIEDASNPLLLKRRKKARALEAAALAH

[10] = target: Protein kinase C alpha type (Homo sapiens) (UniProt P17252); assay: Inhibition of PRKCA (unknown origin) at 500 nM
[11] = target: Mitogen-activated protein kinase 8 (Homo sapiens) (UniProt P45983); assay: Inhibition of MAPK8 (unknown origin) at 500 nM
[12] = target: Serine/threonine-protein kinase B-raf (Homo sapiens) (UniProt P15056); assay: Inhibition of BRAF (unknown origin) at 500 nM
[13] = target: Tyrosine-protein kinase Lyn (Homo sapiens) (UniProt P07948); assay: Inhibition of LYN B (unknown origin) at 500 nM
Sequence of Tyrosine-protein kinase Lyn (Homo sapiens) (P07948 2-512 limits assumed): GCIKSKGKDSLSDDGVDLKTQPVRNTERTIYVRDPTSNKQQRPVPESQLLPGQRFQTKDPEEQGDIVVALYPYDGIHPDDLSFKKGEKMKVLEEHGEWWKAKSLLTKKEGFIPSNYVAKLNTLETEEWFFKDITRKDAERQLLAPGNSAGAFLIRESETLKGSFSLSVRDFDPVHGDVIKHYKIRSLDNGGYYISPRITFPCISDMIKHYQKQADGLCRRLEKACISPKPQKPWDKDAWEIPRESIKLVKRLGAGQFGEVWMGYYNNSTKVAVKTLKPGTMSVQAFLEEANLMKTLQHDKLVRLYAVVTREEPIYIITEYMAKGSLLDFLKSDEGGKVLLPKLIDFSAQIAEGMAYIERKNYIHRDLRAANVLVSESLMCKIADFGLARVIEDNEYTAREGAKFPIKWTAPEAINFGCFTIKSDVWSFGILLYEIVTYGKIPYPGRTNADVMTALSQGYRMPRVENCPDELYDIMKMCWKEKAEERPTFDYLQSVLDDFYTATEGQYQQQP

[14] = target: Receptor tyrosine-protein kinase erbB-2 (Homo sapiens) (UniProt P04626); assay: Inhibition of ERBB2 (unknown origin) at 500 nM
Sequence of Receptor tyrosine-protein kinase erbB-2 (Homo sapiens) (P04626 whole entry): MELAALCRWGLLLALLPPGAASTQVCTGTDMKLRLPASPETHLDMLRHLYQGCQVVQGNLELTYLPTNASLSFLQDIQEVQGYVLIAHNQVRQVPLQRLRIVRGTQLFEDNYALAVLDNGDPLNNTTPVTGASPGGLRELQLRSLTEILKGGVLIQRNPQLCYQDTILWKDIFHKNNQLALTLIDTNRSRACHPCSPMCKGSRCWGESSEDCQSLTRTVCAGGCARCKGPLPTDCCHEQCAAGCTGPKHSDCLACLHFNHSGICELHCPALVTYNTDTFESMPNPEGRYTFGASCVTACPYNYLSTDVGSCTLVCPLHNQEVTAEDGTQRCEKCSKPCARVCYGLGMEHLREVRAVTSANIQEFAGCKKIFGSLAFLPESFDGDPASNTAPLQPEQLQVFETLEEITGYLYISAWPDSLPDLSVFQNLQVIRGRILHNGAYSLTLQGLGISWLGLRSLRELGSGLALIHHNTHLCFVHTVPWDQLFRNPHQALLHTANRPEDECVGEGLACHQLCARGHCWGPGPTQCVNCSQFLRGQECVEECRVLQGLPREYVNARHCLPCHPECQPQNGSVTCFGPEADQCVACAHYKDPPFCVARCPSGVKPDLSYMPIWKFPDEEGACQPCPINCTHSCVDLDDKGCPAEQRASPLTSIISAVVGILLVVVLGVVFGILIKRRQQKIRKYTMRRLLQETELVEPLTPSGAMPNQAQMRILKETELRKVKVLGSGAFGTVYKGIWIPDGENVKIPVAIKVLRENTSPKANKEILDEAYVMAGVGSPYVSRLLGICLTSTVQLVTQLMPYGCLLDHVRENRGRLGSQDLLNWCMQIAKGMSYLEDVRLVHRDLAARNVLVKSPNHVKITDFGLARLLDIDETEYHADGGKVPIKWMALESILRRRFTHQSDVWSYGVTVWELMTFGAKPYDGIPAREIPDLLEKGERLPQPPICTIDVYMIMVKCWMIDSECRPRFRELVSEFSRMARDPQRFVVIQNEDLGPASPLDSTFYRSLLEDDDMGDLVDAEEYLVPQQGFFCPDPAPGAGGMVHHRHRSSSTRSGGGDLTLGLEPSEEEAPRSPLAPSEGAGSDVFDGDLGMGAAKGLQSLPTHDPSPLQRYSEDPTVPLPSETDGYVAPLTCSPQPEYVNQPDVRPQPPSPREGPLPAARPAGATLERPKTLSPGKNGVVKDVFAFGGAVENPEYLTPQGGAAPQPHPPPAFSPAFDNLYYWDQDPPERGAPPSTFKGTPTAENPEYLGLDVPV

[15] = target: T2, Inhibitor of nuclear factor kappa-B kinase subunit beta (Homo sapiens) (UniProt O14920); assay: Inhibition of IKBKB (unknown origin) at 500 nM
T2 sequence (whole entry): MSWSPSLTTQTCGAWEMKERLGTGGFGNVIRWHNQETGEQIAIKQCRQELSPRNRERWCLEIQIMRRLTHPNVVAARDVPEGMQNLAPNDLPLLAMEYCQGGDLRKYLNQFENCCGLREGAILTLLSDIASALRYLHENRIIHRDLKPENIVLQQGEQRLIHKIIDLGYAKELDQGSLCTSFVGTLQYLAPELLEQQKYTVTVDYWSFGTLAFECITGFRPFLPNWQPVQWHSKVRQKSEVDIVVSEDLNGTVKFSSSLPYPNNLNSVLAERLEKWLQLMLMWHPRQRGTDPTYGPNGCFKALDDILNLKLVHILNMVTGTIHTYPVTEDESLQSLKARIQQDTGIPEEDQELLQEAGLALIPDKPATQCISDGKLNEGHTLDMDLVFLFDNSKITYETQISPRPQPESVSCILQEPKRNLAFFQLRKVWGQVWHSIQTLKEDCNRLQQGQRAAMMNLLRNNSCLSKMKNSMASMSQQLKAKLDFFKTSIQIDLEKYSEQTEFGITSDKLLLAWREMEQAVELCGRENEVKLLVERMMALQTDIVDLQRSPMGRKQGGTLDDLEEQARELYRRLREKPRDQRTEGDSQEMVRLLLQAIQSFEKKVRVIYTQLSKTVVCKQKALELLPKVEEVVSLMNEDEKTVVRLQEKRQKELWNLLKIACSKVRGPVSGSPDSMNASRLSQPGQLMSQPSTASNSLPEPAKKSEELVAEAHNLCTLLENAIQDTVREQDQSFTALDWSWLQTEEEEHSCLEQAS

[16] = target: Tyrosine-protein kinase CSK (Homo sapiens) (UniProt P41240); assay: Inhibition of CSK (unknown origin) at 500 nM
[17] = target: Mast/stem cell growth factor receptor Kit (Homo sapiens) (UniProt P10721); assay: Inhibition of KIT (unknown origin) at 500 nM
[18] = target: Receptor tyrosine-protein kinase erbB-4 (Homo sapiens) (UniProt Q15303); assay: Inhibition of ERBB4 (unknown origin) at 500 nM
Sequence of Receptor tyrosine-protein kinase erbB-4 (Homo sapiens) (Q15303 whole entry): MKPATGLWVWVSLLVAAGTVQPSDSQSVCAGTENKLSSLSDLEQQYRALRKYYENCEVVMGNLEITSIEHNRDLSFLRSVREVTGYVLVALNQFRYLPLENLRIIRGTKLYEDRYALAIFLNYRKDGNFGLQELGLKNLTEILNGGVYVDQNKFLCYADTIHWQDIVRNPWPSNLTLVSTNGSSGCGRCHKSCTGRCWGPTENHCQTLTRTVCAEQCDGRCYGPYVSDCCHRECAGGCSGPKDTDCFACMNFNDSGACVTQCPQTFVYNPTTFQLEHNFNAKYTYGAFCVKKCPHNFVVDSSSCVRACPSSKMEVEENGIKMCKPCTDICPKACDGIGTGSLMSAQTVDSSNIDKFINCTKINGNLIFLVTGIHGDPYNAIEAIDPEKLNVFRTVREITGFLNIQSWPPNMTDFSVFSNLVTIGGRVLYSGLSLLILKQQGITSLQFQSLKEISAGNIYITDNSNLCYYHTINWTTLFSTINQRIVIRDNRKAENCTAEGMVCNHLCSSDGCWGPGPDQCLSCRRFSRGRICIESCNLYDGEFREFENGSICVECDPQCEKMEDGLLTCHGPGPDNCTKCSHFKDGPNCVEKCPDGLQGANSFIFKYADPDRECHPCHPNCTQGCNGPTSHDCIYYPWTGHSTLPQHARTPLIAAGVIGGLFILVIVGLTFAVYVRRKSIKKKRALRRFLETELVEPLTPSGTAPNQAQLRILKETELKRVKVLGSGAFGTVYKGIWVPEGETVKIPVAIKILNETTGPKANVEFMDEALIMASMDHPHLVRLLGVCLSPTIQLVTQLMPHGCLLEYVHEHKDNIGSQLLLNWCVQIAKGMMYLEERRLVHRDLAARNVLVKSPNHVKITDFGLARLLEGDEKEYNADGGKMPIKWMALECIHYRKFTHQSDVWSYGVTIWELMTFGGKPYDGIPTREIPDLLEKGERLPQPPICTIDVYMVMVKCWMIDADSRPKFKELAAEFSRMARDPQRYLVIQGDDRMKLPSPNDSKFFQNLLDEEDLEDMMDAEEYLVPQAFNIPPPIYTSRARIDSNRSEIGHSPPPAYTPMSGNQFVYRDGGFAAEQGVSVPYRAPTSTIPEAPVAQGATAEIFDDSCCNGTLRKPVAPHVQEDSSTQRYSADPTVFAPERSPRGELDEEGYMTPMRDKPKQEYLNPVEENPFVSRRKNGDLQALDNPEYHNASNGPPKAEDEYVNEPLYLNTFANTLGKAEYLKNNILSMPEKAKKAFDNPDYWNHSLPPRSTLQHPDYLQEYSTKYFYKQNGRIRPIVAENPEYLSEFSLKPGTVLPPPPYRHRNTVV

[19] = target: Serine/threonine-protein kinase PLK1 (Homo sapiens) (UniProt P53350); assay: Inhibition of PLK1 (unknown origin) at 500 nM
[20] = target: Mitogen-activated protein kinase 14 (Homo sapiens) (UniProt Q16539); assay: Inhibition of MAPK14 (unknown origin) at 500 nM
[21] = target: Tyrosine-protein kinase Fer (Homo sapiens) (UniProt P16591); assay: Inhibition of FER (unknown origin) at 500 nM
Sequence of Tyrosine-protein kinase Fer (Homo sapiens) (P16591 whole entry, looked up): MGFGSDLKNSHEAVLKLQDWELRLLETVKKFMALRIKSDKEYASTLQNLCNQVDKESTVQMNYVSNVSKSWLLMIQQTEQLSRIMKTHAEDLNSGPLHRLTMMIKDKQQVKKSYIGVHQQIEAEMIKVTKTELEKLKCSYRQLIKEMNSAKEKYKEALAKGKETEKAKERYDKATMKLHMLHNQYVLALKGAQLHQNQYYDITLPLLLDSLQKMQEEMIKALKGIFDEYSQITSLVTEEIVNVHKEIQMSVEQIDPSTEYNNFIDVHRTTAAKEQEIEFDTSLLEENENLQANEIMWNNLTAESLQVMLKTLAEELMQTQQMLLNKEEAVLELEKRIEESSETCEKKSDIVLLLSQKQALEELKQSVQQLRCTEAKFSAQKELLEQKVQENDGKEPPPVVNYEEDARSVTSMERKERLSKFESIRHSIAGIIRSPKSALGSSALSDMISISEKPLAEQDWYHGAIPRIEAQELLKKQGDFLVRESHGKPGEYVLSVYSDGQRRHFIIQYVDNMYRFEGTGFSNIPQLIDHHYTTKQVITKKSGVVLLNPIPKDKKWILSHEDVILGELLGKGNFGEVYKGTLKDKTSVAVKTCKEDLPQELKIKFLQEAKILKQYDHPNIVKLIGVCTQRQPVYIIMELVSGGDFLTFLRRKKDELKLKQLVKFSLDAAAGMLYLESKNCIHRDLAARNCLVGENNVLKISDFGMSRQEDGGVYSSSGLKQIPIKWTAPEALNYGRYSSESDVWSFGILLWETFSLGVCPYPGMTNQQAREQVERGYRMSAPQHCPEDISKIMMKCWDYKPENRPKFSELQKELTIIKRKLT

[22] = Half-life in human liver microsomes at 3 uM by LC-MS/MS analysis; format: ADME
[23] = target: T3, Serine/threonine-protein kinase Chk1 (Homo sapiens) (UniProt O14757); assay: Inhibition of CHEK1 (unknown origin) at 500 nM
T3 sequence (whole entry): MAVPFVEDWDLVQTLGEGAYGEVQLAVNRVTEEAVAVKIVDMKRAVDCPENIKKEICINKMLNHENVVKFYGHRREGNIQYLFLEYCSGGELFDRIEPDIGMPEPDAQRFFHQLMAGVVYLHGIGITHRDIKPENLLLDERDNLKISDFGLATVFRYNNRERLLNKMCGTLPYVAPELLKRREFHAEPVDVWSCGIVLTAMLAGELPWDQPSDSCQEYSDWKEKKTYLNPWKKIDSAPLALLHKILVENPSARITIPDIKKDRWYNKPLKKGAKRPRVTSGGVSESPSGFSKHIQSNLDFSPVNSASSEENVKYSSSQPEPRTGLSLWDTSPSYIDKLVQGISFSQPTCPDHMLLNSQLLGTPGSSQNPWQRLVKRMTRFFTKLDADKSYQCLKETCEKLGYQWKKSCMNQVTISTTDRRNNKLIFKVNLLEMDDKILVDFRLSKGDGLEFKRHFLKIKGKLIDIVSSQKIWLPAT

inhibition [1]	inhibition [2]	inhibition [3]	inhibition [4]	inhibition [5]	inhibition [6]	inhibition [7]	inhibition [8]	inhibition [9]	inhibition [12]	inhibition [13]	inhibition [14]	inhibition [15]	inhibition [16]	inhibition [17]	inhibition [18]	inhibition [19]	inhibition [20]	inhibition [21]	inhibition [23]	SMILES	other results
15%	-7%	10%	-3%	-2%	-3%	8%	-10%	4%	11%	22%	32%	4%	18%	11%	22%	2%	8%	0%		COc1cc(CO)ccc1-c1cc2c(Nc3ccccc3)ncnc2s1	inhibition [10]: -1%; inhibition [11]: 17%
0%	18%	23%	-5%	-3%	6%	9%	12%	2%	7%	37%	54%	3%	13%	1%	30%	6%	9%	-4%	-5%	CN(C)CCNC(=O)c1ccc(-c2cc3c(N[C@H](CO)c4ccccc4)ncnc3s2)cc1	half-life at 3 µM [22]: 1.1 h; inhibition [11]: 8%
38%	-2%	44%	-5%	25%		5%	-4%	-1%				-5%	8%		78%	-9%	13%	-1%	-7%	C#Cc1cccc(Nc2ncnc3cc(OCCOC)c(OCCOC)cc23)c1 [ERLOTINIB]	half-life at 3 µM [22]: 0.533 h
6%	-2%	-2%	0%	-4%	-4%	-3%	0%	-1%	7%	62%	63%	3%	3%	-1%	46%	2%	8%	5%	-8%	COc1ccc(C(=O)NCCN(C)C)cc1-c1cc2c(N[C@H](C)c3ccccc3)ncnc2s1	half-life at 3 µM [22]: 1.93 h
2%	1%	1%	3%	7%	1%	1%	1%	1%	1%	57%	57%	10%	7%	7%	30%	1%	1%	10%	1%	COc1cc(CO)ccc1-c1cc2c(N[C@H](C)c3ccccc3)ncnc2s1	inhibition [11]: 2%

SMILES	inhibition [1]	inhibition [2]	inhibition [3]	inhibition [4]	inhibition [5]	inhibition [6]	inhibition [7]	inhibition [8]	inhibition [9]	inhibition [12]	inhibition [13]	inhibition [14]	inhibition [15]	inhibition [16]	inhibition [17]	inhibition [18]	inhibition [19]	inhibition [20]	inhibition [21]	inhibition [23]	other results
COc1cc(CO)ccc1-c1cc2c(N[C@H](CO)c3ccccc3)ncnc2s1	3%	4%	10%	1%	9%	5%	13%	1%	8%	20%	56%	50%	1%	5%	1%	63%	1%	13%	8%	15%	half-life at 3 µM [22]: 2.57 h; inhibition [11]: 14%
